Test results as given in EP2777394A1, “Agricultural adjuvant composition and process for its obtainment” (SC Teso Spec SRL, priority 2012, dated 2014).

Legend:
[1] = system: common cocklebur (Xanthium strumarium); assay: Greenhouse test of adjuvants on nicosulfuron efficacy, common cocklebur; format: in vivo; conditions: nicosulfuron 50 g/ha, without adjuvant, Trend 90 0,1% or soybean oil methylate 1%
Procedure: (§1) Example 8. The basic adjuvant A1.3 was tested on greenhouse conditions in order to verify its effect on the performance increase of nicosulfuron, herbicide representative for the category of weakly acid herbicides from the sulfonylurea class, which solubility in water is increased on high pH. The used test plants were common cocklebur (Xanthium strumarium), dicotyledonous weed, and large crabgrass (Digitaria sanguinalis), monocotyledonous weed. The common cocklebur was sown on approx. 2 cm deep, in plastic pots of 15 cm diameter, and after emergence was thinned to only 2 plants. The large crabgrass was planted in the same type of plastic pots, at 1 cm deep, and after emergence was thinned to a cluster of around 15 plants. The pots contain a synthetic grown substrate enriched with nutrients for the first week of plant growth ([…] Professional Plus, Canna International BV, Oosterhout, Netherlands), and consequently were not applied fertilizers. […] At three weeks after the treatment it was determined the fresh weight of plants on each repetition by weighting and was estimated the phytotoxicity, using a scale from 0% (without visible symptoms) to 100% (plant completely destroyed). […]

[2] = system: large crabgrass (Digitaria sanguinalis); assay: Greenhouse test of adjuvants on nicosulfuron efficacy, large crabgrass; format: in vivo; conditions: nicosulfuron 50 g/ha, without adjuvant, Trend 90 0,1% or soybean oil methylate 1%
Procedure: as §1

[3] = fresh weight three weeks after treatment
[4] = three weeks after treatment, scale 0-100%

SMILES: COc1cc(OC)nc(NC(=O)NS(=O)(=O)c2ncccc2C(=O)N(C)C)n1 [nicosulfuron]
- Mass reduction (% control) [1, 3]: 59c % control
- Phytotoxicity (%) [1, 4]: 33c %
- Mass reduction (% control) [2, 3]: 52c % control
- Phytotoxicity (%) [2, 4]: 40c %
